Measurements taken from PubChem BioAssay (NCI).
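Tested at 5 concentrations; 48 h exposure; 96-well plates; endpoints linearly interpolated, else capped at highest concentration. The concentration for 50% growth inhibition is given as GI50. The concentration for full growth arrest is given as TGI.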

Assays:
Assay in all cases: NCI-60 cell line screen, 48 h
UACC-257 melanoma = system: UACC-257 melanoma
HL-60(TB) leukemia = system: HL-60(TB) leukemia
CAKI-1 renal = system: CAKI-1 renal
MALME-3M melanoma = system: MALME-3M melanoma
A498 renal = system: A498 renal
NCI-H23 lung = system: NCI-H23 lung
UO-31 renal = system: UO-31 renal
IGROV1 ovarian = system: IGROV1 ovarian
K-562 leukemia = system: K-562 leukemia
SN12C renal = system: SN12C renal

| SMILES | GI50 (UACC-257 melanoma) | TGI (UACC-257 melanoma) | GI50 (HL-60(TB) leukemia) | TGI (HL-60(TB) leukemia) | GI50 (CAKI-1 renal) | TGI (CAKI-1 renal) | GI50 (MALME-3M melanoma) | TGI (MALME-3M melanoma) | GI50 (A498 renal) | TGI (A498 renal) | GI50 (NCI-H23 lung) | TGI (NCI-H23 lung) | GI50 (UO-31 renal) | TGI (UO-31 renal) | GI50 (IGROV1 ovarian) | TGI (IGROV1 ovarian) | GI50 (K-562 leukemia) | TGI (K-562 leukemia) | GI50 (SN12C renal) | TGI (SN12C renal) |
| --- | --- | --- | --- | --- | --- | --- | --- | --- | --- | --- | --- | --- | --- | --- | --- | --- | --- | --- | --- | --- |
| N#Cc1c2ccccc2c2nnc3cc(Cl)c(Cl)cc3n12 | 34.5 µM | > 100 µM | 22.6 µM | 70.2 µM | 77.4 µM | > 100 µM | > 100 µM | > 100 µM | 56.6 µM | > 100 µM | 75.1 µM | > 100 µM | 23.3 µM | 65.8 µM | 44.5 µM | > 100 µM | 29 µM | 89.1 µM | 23 µM | 61.6 µM |
| CC(C)[C@]12O[C@H]1[C@@H]1O[C@]13[C@]1(O[C@H]1C[C@H]1c4c(C(=O)c5ccccc5)oc(OC(=O)c5ccccc5)c4CC[C@@]13C)[C@@H]2O | 0.0168 µM | 0.0628 µM | 0.023 µM | > 100 µM | 0.0183 µM | 50.2 µM | 0.0189 µM | 0.0498 µM | 0.0179 µM | 0.0614 µM | < 0.0105 µM | 0.111 µM | 0.0223 µM | 10.5 µM | 0.028 µM | 9.74 µM | 0.0219 µM | – | 0.0249 µM | 52.2 µM |
| CO/N=C1/c2cc(OC)ccc2-c2c(NOC)nc3ccccc3c21 | 28.2 µM | > 100 µM | 28.3 µM | > 100 µM | > 100 µM | > 100 µM | 0.103 µM | 23.7 µM | 16.1 µM | 36.9 µM | 28.6 µM | 97.9 µM | 35.4 µM | > 100 µM | 18 µM | 44.2 µM | 65.7 µM | > 100 µM | 29.5 µM | > 100 µM |
| Cc1ccc(/C=C(\C#N)n2nnc3cc(F)c(F)cc32)cc1 | 1.63 µM | 3.54 µM | 3.16 µM | > 100 µM | 1.77 µM | 19.1 µM | 15.9 µM | 56.7 µM | 2.51 µM | 7.84 µM | 5.21 µM | 28 µM | 2.8 µM | 14.2 µM | 3.43 µM | 32.1 µM | 0.445 µM | > 100 µM | 2.72 µM | 7.41 µM |
| O=Cc1ccc(C(F)(F)F)cc1.[C-]#[O+].[C-]#[O+].[C-]#[O+].[Cr] | 58.2 µM | > 100 µM | 16.1 µM | 92.6 µM | 24.6 µM | > 100 µM | 26.8 µM | 91 µM | 21.4 µM | > 100 µM | 37.1 µM | > 100 µM | 16 µM | 48.5 µM | 18.7 µM | > 100 µM | 26.2 µM | 97.6 µM | 22.6 µM | 82.1 µM |
| O=C1NC(=NCCc2ccccc2Cl)S/C1=C\c1ccc2ncccc2c1 | 11.2 µM | > 25 µM | 2.63 µM | 10.3 µM | 3.3 µM | > 14.8 µM | > 21.3 µM | > 25 µM | 3.68 µM | 17.6 µM | 6.06 µM | > 25 µM | 5.13 µM | > 25 µM | 5.75 µM | > 25 µM | 1.1 µM | > 25 µM | 7.72 µM | > 25 µM |
| COC(=O)C1Cc2c([nH]c3ccccc23)C=N1 (stereo not given) | – | > 100 µM | – | > 100 µM | – | > 100 µM | – | > 100 µM | – | > 100 µM | – | > 100 µM | – | > 100 µM | – | > 100 µM | – | > 100 µM | – | > 100 µM |
| COc1ccc(C(=O)Nc2cccc(C3CC(=O)c4c(cc(OC)c(OC)c4OC)O3)c2)cc1 (stereo not given) | 11.6 µM | 56 µM | 1 µM | 3.36 µM | 1.58 µM | > 100 µM | 1.56 µM | 32.6 µM | 2 µM | 8.12 µM | 2.63 µM | > 100 µM | 1.33 µM | > 100 µM | 2.41 µM | > 100 µM | 0.367 µM | > 100 µM | 1.62 µM | > 100 µM |
| O=Nc1c(-c2cccc([N+](=O)[O-])c2)nc2ncccn12 | 12.3 µM | 26.4 µM | 2.32 µM | 6.15 µM | 10.4 µM | 22.6 µM | 14.5 µM | 29.1 µM | 17.4 µM | 38.3 µM | 15.1 µM | 34.9 µM | 5.66 µM | 30.3 µM | 10.3 µM | 23.4 µM | 1.28 µM | 4.15 µM | 16.4 µM | 42.3 µM |
| CC1=C(C)C(=O)C(C(C)C2=C(C)C(=O)C(C)=C(C)C2=O)=C(C)C1=O | 33.5 µM | > 100 µM | 6.94 µM | 24.5 µM | 28.6 µM | > 100 µM | 44.1 µM | > 100 µM | 25.2 µM | > 100 µM | 21.6 µM | > 100 µM | 27.6 µM | 85.5 µM | 48.9 µM | > 100 µM | 13.2 µM | > 100 µM | 56 µM | > 100 µM |
| Nc1nc(Cl)nc2c1ncn2C1O[C@H](CO)[C@@H](O)[C@@H]1F (stereo not given in full) | – | > 100 µM | 0.0305 µM | 0.14 µM | 0.326 µM | – | 43.4 µM | > 100 µM | 0.682 µM | 14.3 µM | – | – | 0.156 µM | 1.24 µM | > 73.5 µM | > 100 µM | 3.79 µM | > 100 µM | 0.0668 µM | > 100 µM |
| CCOC1NC(=O)Oc2ccccc21 (stereo not given) | – | > 100 µM | – | > 100 µM | – | > 100 µM | – | > 100 µM | – | > 100 µM | – | > 100 µM | – | > 100 µM | – | > 100 µM | – | > 100 µM | – | > 100 µM |
| Cc1cccc(C)c1NC(=O)C(=O)C1C(=O)N(c2ccccc2)N=C1N (stereo not given) | – | > 100 µM | – | > 100 µM | – | > 100 µM | – | > 100 µM | – | > 100 µM | – | > 100 µM | – | > 100 µM | – | > 100 µM | – | > 100 µM | – | > 100 µM |
| C/C=C/C1(NS(=O)(=O)c2ccc(C)cc2)CCC(C(C)(C)C)CC1 (stereo not given) | – | 56 µM | – | 44.5 µM | – | 98.1 µM | – | 49.4 µM | – | 49.3 µM | – | 51.7 µM | – | 62.3 µM | – | 77.2 µM | – | 99.5 µM | – | 34.7 µM |
